Like-named read-outs stand apart in the source and are kept apart here. Ends that are not written are not given here. Peptide text beside a SMILES is read from it.
How the values were obtained:
[1] = target: Recombinant human EGFR protein (Active) (ab155639) (Homo sapiens, UniProt P00533); assay: Microscale thermophoresis (MST) binding to EGFR
Protocol: It is known from the literature data that the dissociation constant of this binding interaction varies from 0.2 to 8 nM [102]. […] It is recommended that the concentration of the ligand should be at least 20× higher than the expected dissociation constant. In the experiments, the final labeled EGFR concentration was 25 nM.
MST analysis was performed using a Monolith NT.115 device, excitation color—Nano-RED, excitation power—100%, medium MST power.
Recombinant human EGFR protein (Active) (ab155639) was reconstituted with 500 μL of 0.45 μm filtered distilled water. Then, 100 nM solution of EGFR was prepared by mixing 3.6 μL of protein with 96.4 μL PBS-T (PBS with 0.05% Tween20). RED-tris-NTA 2nd Generation (5 μM) was obtained by dissolving […] of dye in 50 μL PBS-T. A solution of dye in PBS-T (50 nM) was prepared by mixing 1 μL of dye with 99 μL PBS-T. A solution of the protein (95 μL) was mixed with the solution of dye (95 μL) and incubated at room temperature for 30 min. The sample was then centrifuged for 10 min at 4 °C. The final labeled protein concentration in the assay was 25 nM.
Then, 20 μL of the ligand was transferred to PCR tube 1. Subsequently, 10 μL of the solution was transferred to PCR tube 2 and mixed by pipetting; 10 μL of the solution from PCR tube 2 was transferred to PCR tube 3 and mixed by pipetting; this procedure was repeated for PCR tubes 4–16. From PCR tube 16, 10 μL of the solution was discarded. Finally, 10 μL of labeled EGFR was added to each PCR tube and mixed by pipetting. The samples were incubated for 30 min at room temperature prior to MST assays. Analyses were performed using NanoTemper Technologies (München, Germany).

[2] = tested on: Primary Dermal Fibroblasts; assay: Live/dead test (proliferation and cytotoxicity); format: cell-based; details: 100 ng/mL; for percentage of live cells (in words) / live cells: live/dead assay
Protocol: In the next stage of our research, the scope of biological tests was expanded to assess the safety of the found EGF fragments. Fragments 10–22, 13–19, 22–28, 26–34, 10–15, and 10–15a were selected for further study in a live/dead assay (Figure 7, Figure 8 and Figure 9).
Primary Dermal Fibroblast (ATCC, Manassas, USA) was grown in Fibroblast Basal Media supplemented with Fibroblast Growth Kit components (ATCC, Manassas, VA, USA). The cells were cultured under standard conditions (37 °C, humidified atmosphere of 5% CO2 in air). The medium was replaced every 2–3 days (75% confluence). Cells between the third and fifth passages were used in the experiment.
To evaluate proliferation and cytotoxicity, a “live/dead” test (Viability/Cytotoxicity Kit, Molecular Probes) was used. Cells were seeded at 6 × 10^4 cells/mL/well/sample in 2 mL of Fibroblast Basal Media supplemented with Fibroblast Growth Kit components (ATCC, Manassas, VA, USA). After 24 h, the medium was completely replaced. Cells in the positive control and negative control were cultured in medium containing FGF. In the remaining samples, media without FGF and with the addition of heat-inactivated serum were used. […] During the experiment, half of the medium was changed every 2 days. […] After that time, a mixture of two fluorescent dyes was used: Calcein-AM for the staining of living cells and ethidium bromide for the labeling of dead cells.
The samples were examined using an Olympus GX 71 fluorescence microscope equipped with a digital camera (DP70) (Olympus, Evident, Tokyo, Japan). The results were submitted to one-way ANOVA analysis.

[3] = tested on: anti-EGF rabbit polyclonal antibodies (Abcam 9695); assay: Dot blot of cellulose-immobilized EGF decapeptides with anti-EGF polyclonal antibodies; format: binding;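 as to Intensity (Staining Value): higher gray value means stronger antibody binding with above 120 very strong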
Protocol: Dot blot reactions were performed using primary anti-EGF rabbit polyclonal antibodies (Abcam 9695) (Cambridge, UK) and secondary goat anti-rabbit antibodies conjugated with HRP (Abcam 205718). The procedure for using the dot blot method to analyze peptides immobilized on a cellulose matrix through a triazine linker was optimized in a previous study by the authors and ensures the elimination of non-specific impacts.
The solution was then removed, and the membranes were treated overnight at room temperature with blocking buffer (3% BSA in PBS, 40 mL, pH 7.4). The cellulose sheets were then washed with PBS buffer (40 mL, 5 min, pH 7.4). […] The membranes were then washed with Tween-80 solution in PBS (0.4%, 40 mL, 2 × 5 min) and PBS (40 mL, 5 min). Goat Anti-Rabbit IgG antibodies were conjugated with HRP (Abcam 205718, 20 μL) diluted 1:1000 in 1% BSA in PBS (20 mL, pH 7.4) and then incubated with cellulose sheets for 30 min at room temperature. The membranes were then washed with Tween-80 solution in PBS (0.4%, 40 mL, 2 × 5 min) and PBS (40 mL, 5 min). Visualization of the reactions was performed using 4-chloro-1-naphtol (Sigma–Aldrich). The cellulose sheets were placed into 0.15 mg/mL solution of 4-chloro-1-naphtol in MeOH:PBS (1:5, 15 mL) with the addition of 7.5 μL of H2O2; reaction time was 30 min. The membranes were washed with distilled water, air-dried, and scanned. In places where immunological complexes developed, blue precipitate was observed. The applied dot blot test procedure ensures the elimination of non-specific interactions. Additionally, using the same SPOT synthesis procedure, a library of type IV collagen fragments was obtained. […] The gray levels of the immunological reactions were determined using ImageJ Version 1.53n7 (https://imagej.nih.gov/ij/index.html, accessed on 17 October 2021) computer imaging software.

[4] = target: T1, Recombinant human EGFR protein (Active) (ab155639) (human, UniProt P00533 25-645, labelled with RED-tris-NTA 2nd Generation dye); assay: MST; RED-tris-NTA-labelled EGFR 25 nM, ligand in a 16-step 1:1 dilution series in PBS-T, 30 min at room temperature; assay concentration of the ligand 500 μM; details: both partners purified
T1 construct: epidermal growth factor receptor (EGFR, ErbB-1), human, recombinant; also called EGF receptor; ErbB-1; source: bought: Abcam (ab155639), recombinant

[5] = target: T1, Recombinant human EGFR protein (Active) …; assay: MST; RED-tris-NTA-labelled EGFR 25 nM, ligand in a 16-step 1:1 dilution series in PBS-T, 30 min at room temperature; assay concentration of the ligand 10 mM; details: both partners purified
[6] = target: T1, Recombinant human EGFR protein (Active) …; assay: MST; RED-tris-NTA-labelled EGFR 25 nM, ligand in a 16-step 1:1 dilution series in PBS-T, 30 min at room temperature; assay concentration of the ligand 350 μM; details: both partners purified
[7] = target: T1, Recombinant human EGFR protein (Active) …; assay: MST; RED-tris-NTA-labelled EGFR 25 nM, ligand in a 16-step 1:1 dilution series in PBS-T, 30 min at room temperature; assay concentration of the ligand 1 mM; details: both partners purified
[8] = target: T1, Recombinant human EGFR protein (Active) …; assay: MST; RED-tris-NTA-labelled EGFR 25 nM, ligand in a 16-step 1:1 dilution series in PBS-T, 30 min at room temperature; assay concentration of the ligand 141 μM; details: both partners purified
[9] = target: T1, Recombinant human EGFR protein (Active) …; assay: MST; RED-tris-NTA-labelled EGFR 25 nM, ligand in a 16-step 1:1 dilution series in PBS-T, 30 min at room temperature; assay concentration of the ligand 50 μM; details: both partners purified
[10] = target: T1, Recombinant human EGFR protein (Active) …; assay: MST; RED-tris-NTA-labelled EGFR 25 nM, ligand in a 16-step 1:1 dilution series in PBS-T, 30 min at room temperature; assay concentration of the ligand 705 μM; details: both partners purified
[11] = target: T1, Recombinant human EGFR protein (Active) …; assay: MST; RED-tris-NTA-labelled EGFR 25 nM, ligand in a 16-step 1:1 dilution series in PBS-T, 30 min at room temperature; assay concentration of the ligand 5 mM; details: both partners purified
[12] = target: T1, Recombinant human EGFR protein (Active) …; assay: MST; RED-tris-NTA-labelled EGFR 25 nM, ligand in a 16-step 1:1 dilution series in PBS-T, 30 min at room temperature; assay concentration of the ligand 2.5 mM; details: both partners purified
[13] = target: T1, Recombinant human EGFR protein (Active) …; assay: MST; RED-tris-NTA-labelled EGFR 25 nM, ligand in a 16-step 1:1 dilution series in PBS-T, 30 min at room temperature; assay concentration of the ligand 10 μM; details: both partners purified
[14] = target: T1, Recombinant human EGFR protein (Active) …; assay: MST; RED-tris-NTA-labelled EGFR 25 nM, ligand in a dilution series in PBS-T; assay concentration of the ligand not stated for the values printed in running text; details: both partners purified

Molecule: IGERCQ [38–43]
- Kd ([1]; MST, range over the tested fragment concentrations, labeled EGFR 25 nM, read-out: Kd (range over the assay concentrations)): 0.108 to 0.709 µM

Molecule: QYRDL [43–47]
- percentage of live cells (in words) ([2]; after 7 days): highest live percentage of cells for all tested peptides
- Kd [1]: 4.93 to 125 µM

Molecule: CSCC[C@H](NC(=O)[C@H](CS)NC(=O)[C@@H](NC(=O)CNC(=O)[C@H](CC(=O)O)NC(=O)[C@H](Cc1c[nH]cn1)NC(=O)[C@H](CC(C)C)NC(=O)[C@H](CS)NC(=O)[C@H](Cc1ccc(O)cc1)NC(=O)CNC(=O)[C@H](CC(=O)O)NC(=O)[C@@H](N)Cc1c[nH]cn1)C(C)C)C(=O)N[C@@H](Cc1ccc(O)cc1)C(=O)O [10–22] (H-HDGYCLHDGVCMY-OH; C-terminus assumed)
- percentage of live cells (in words) ([2]; after 1 day): slightly less survivability
- live cells ([2]; after 7 days): 99.25%
- live cells ([2]; after one day): 97.13%
- dissociation constants (range over the assay concentrations) ([1]; MST, range over the tested fragment concentrations, labeled EGFR 25 nM): 0.07 to 416 µM

Molecule: CC(C)C[C@H](N)C(=O)N[C@@H](CC(=O)O)C(=O)N[C@@H](CCCCN)C(=O)N[C@@H](Cc1ccc(O)cc1)C(=O)N[C@@H](C)C(=O)N[C@@H](CS)C(=O)N[C@@H](CC(N)=O)C(=O)N[C@@H](CS)C(=O)N[C@H](C(=O)O)C(C)C [26–34] (H-LDKYACNCV-OH)
- number of cells (fibroblast proliferation, in words) ([2]; after 1 day of incubation): more cells than in the medium with EGF
- percentage of live cells (in words) ([2]; after 1 day): one of the highest percentages of live cells
- percentage of live cells (in words) ([2]; after 7 days): one of the highest percentages of live cells

Molecule: HDGYCL [10–15]
- live cells ([2]; after 7 days): 99.52%
- live cells ([2]; after one day): 98.73%

Molecule: VVGYIGERCQYRDL [34–47]
- Kd ([1]; MST, range over the tested fragment concentrations, labeled EGFR 25 nM, read-out: dissociation constants (range over the assay concentrations)): 0.5 to 5.92 µM

Molecule: EGF: native EGF (ab9697), recombinant human EGF protein; 53-amino acid polypeptide
- number of cells (fibroblast proliferation, in words) ([2]; after 7 days of incubation): induced cell growth

Molecule: YIEALDK [22–28]
- percentage of live cells (in words) ([2]; after 1 day): slightly less survivability

Molecule: CC[C@H](C)[C@H](N)C(=O)N[C@@H](CCC(=O)O)C(=O)N[C@@H](C)C(=O)N[C@@H](CC(C)C)C(=O)O [23–26] (H-IEAL-OH)
- Kd ([1]; MST, assay concentration 10 mM, labeled EGFR 25 nM, read-out: Kd): 5090 µM

Molecule: H-YCLHDGV-OH [13–19]
- percentage of live cells (in words) ([2]; after 1 day): slightly less survivability
- live cells ([2]; after 7 days): 99.30%
- live cells ([2]; after one day): 97.84%

Molecule: H-^7PLSHDGYCLH^16-matrix [A7]
- Intensity (ability to interact with polyclonal antibodies) ([3]; peptide on cellulose matrix, antibody 1:1000, 1 h room temperature): +/− (moderately strong (+/−), for which the color intensity value was in the range of 90–45)
- Intensity (Staining Value) ([3]; scanned spot, 256 gray scale (ImageJ)): 62.2

B1: EGF fragment 43–47 (QYRDL) (peptide)
peptide: QYRDL
notes: EGF, human, residues 43-47; numbers count on: the mature protein; source: synthetic peptide (SPPS, Fmoc; crude, without preparative HPLC)
- Kd [4]: 4.93 µM
- Kd [5]: 125 µM

B2: EGF fragment 34–47 (VVGYIGERCQYRDL) (peptide)
peptide: VVGYIGERCQYRDL
notes: EGF, human, residues 34-47; numbers count on: the mature protein; source: synthetic peptide (SPPS, Fmoc; crude, without preparative HPLC)
- Kd [6]: 1.21 µM
- Kd [7]: 0.53 µM
- Kd [8]: 4.62 µM
- Kd [9]: 5.92 µM
- Kd [10]: 2.17 µM

B3: EGF fragment 38–43 (IGERCQ) (peptide)
peptide: IGERCQ
notes: EGF, human, residues 38-43; numbers count on: the mature protein; source: synthetic peptide (SPPS, Fmoc; crude, without preparative HPLC)
- Kd [11]: 0.157 µM
- Kd [4]: 0.154 µM
- Kd [12]: 0.108 µM
- Kd [13]: 0.709 µM
- Kd [14]: 0.1 to 1.8 µM
